# From patent publication US12582633B2 (priority 2020, dated 2026)
# Several values for one entry are separate records, joined by “and”; a condition that tells them apart may be missing. Equal values may be shown once.
# Key:
# SARS-CoV-2 = experiment: microbe, parasite or virus in culture; type: cell-based
structure (smiles),measurement,setting,value
O=C1CN(/N=C/c2ccc(-c3ccc([N+](=O)[O-])cc3)o2)C(O)=N1 [dantrolene],Day 2 Read (CPE),SARS-CoV-2,3/3 wells had No CPE and 3/3 wells had > 90% CPE and 3/3 wells had sparse
same,Day 4 Read (CPE),SARS-CoV-2,3/3 wells had No CPE and 2/3 wells had > 90% CPE and 1/3 wells had > 90% CPE and 3/3 wells had > 90% CPE and 3/3 wells had sparse
same,Day 6 Read (CPE),SARS-CoV-2,3/3 wells had No CPE and 2/3 wells had > 90% CPE and 1/3 wells had > 90% CPE and 3/3 wells had > 90% CPE and 3/3 wells had sparse
same,MIC,"SARS-CoV-2; Severe acute respiratory syndrome coronavirus 2, read-out: minimum inhibitory concentration",20 µM
same,cell viability of uninfected Vero E6 cells,Vero E6 cells,good cell viability
